Reference: US20250064762A1, “A SUBSTITUTED AROMATIC DICARBONIC ACID AMIDE AS AN INHIBITOR OF THE FERROPTOSIS SUPPRESSOR PROTEIN-1 (FSP1)” (JULIUS-MAXIMILIANS-UNIVERSITÄT WÜRZBURG, priority 2021, published 2025)

How the values were obtained:
cancer cell lines = test: FIN56 toxicity in a panel of cancer cell lines; type: cell-based, human, mouse, rat
Source text: Cell culture media and supplements were from Thermo Fisher Scientific, unless specified otherwise. Mouse embryonic fibroblasts (MEFs) were generated from Pgp-wildtype (Pgp^fl/fl) or heterozygous Pgp-inactivated mouse embryos (Pgp^fl/D34N) as described (Segerer et al., 2016). Human embryonic kidney HEK-AD293 (HEK293) cells (Stratagene), HT-1080 human fibrosarcoma cells, PC3 and Du145 human prostate carcinoma cells, HepG2 human hepatocytic carcinoma (HCC) cells, Hepa 1-6 murine HCC, 4T1 mouse breast carcinoma, Colon-26 mouse colon carcinoma, C6 rat glioblastoma and RAW264.7 mouse monocytes/macrophages (all from LGC Standards) were cultured in Dulbecco's modified Eagle's medium (DMEM, 4.5 g/L glucose) supplemented with 10% (v/v) heat-inactivated fetal calf serum (FCS), 2 mM L-glutamine, 100 U/mL penicillin and 100 μg/mL streptomycin (Pen/Strep). Hepa-1c1c7 murine HCC were grown in alpha MEM without nucleosides (Gibco, cat. no. 31095029) supplemented with 10% FCS and Pen/Strep. JTC-27 rat HCC were cultured in RPMI-1640 with 10% FCS and Pen/Strep. […]
Cells were seeded onto 96-well plates (5,000 cells per well), and treated with serial dilutions of ferroptosis-inducing compounds (erastin, BSO, RSL3, FIN56) or cytotoxic drugs (staurosporine, nocodazole, tunicamycin, paclitaxel, etoposide, menadione, rotenone, FCCP, carboplatin) in the absence or presence of CPBA or iFSP1 (100 μM or 10 μM, respectively; unless stated otherwise) or the DMSO solvent control. Ferroptotic cell death was evaluated by incubating in the absence or presence of liproxstatin-1 (100 nM), ferrostatin-1 (200 nM), or deferoxamine (100 μM). Cell viability was assessed after 16 h using AquaBluer as an indicator of viable cells according to the manufacturer's recommendations (MultiTarget Pharmaceuticals, LLC). Fluorescence (excitation, 540 nm; emission, 590 nm) was analyzed on a Clariostar microplater reader. […]

[1] = test system: FSP1-WT or FSP1-KO HT1080 cells; test: FIN-induced ferroptosis in FSP1-WT or FSP1-KO cells; type: cell-based, human; settings: iFSP1 10 μM, CPBA 100 μM; for extent of sensitization to ferroptosis in FSP1-WT cells: FIN56, BSO or RSL3, 16 h; for additional effect in FSP1-deficient cells: FSP1-KO HT1080
Description: (§1) The following HT1080 fibrosarcoma cell lines were generated using CRISPR/Cas9 technology, as previously described (Doll et al., 2019): HT1080 GPX4-knockout (KO) cells (maintained in the presence of 100 μM α-tocopherol); HT1080 GPX4 knockout cells overexpressing FSP1 (GPX4-KO/FSP1-OE); GPX4-KO cells overexpressing FSP1 and re-expressing GPX4 (GPX4-KO/FSP1-OE/GPX4-OE); HT1080 FSP1-WT or FSP1-KO cells; and HT1080 FSP1-KO cells reconstituted with either FSP1-WT or FSP1-G2A. LOX-IMVI (BRAF V600E heterozygous human melanoma cells) expressing either the Venus mock vector or FSP1-Venus (Doll et al., 2019) were grown in RPMI-1640 supplemented with 10% FCS, 2 mM L-glutamine and Pen/Strep.
Cells were seeded onto 96-well plates (5,000 cells per well), and treated with serial dilutions of ferroptosis-inducing compounds (erastin, BSO, RSL3, FIN56) or cytotoxic drugs (staurosporine, nocodazole, tunicamycin, paclitaxel, etoposide, menadione, rotenone, FCCP, carboplatin) in the absence or presence of CPBA or iFSP1 (100 μM or 10 μM, respectively; unless stated otherwise) or the DMSO solvent control. Ferroptotic cell death was evaluated by incubating in the absence or presence of liproxstatin-1 (100 nM), ferrostatin-1 (200 nM), or deferoxamine (100 μM). Cell viability was assessed after 16 h using AquaBluer as an indicator of viable cells according to the manufacturer's recommendations (MultiTarget Pharmaceuticals, LLC). Fluorescence (excitation, 540 nm; emission, 590 nm) was analyzed on a Clariostar microplater reader.
We next performed comparative experiments to compare the effect of CPBA with the effect of the small molecule FSP1 inihibitor iFSP1. To this end, we incubated FSP1-WT or FSP1-KO HT1080 cells with FIN56 (see FIG. 15), BSO (see FIG. 16) or RSL3 (see FIG. 17) to induce ferroptosis as described above. Lack of FSP1 expression in FSP1-KO cell lines was confirmed by Western Blot as described above (see FIG. 14).
Next, we compared the treatment of FSP1-WT and FSP1-KO cells with either iFSP1 or with CPBA (see FIGS. 15, 16 and 17).

[2] = test system: LOX-IMVI human melanoma cells; test: FIN56-induced ferroptosis in LOX-IMVI cells with mock vector or FSP1-Venus; type: cell-based
Description: as §1
LOX-IMVI cells are FSP1-deficient, and were reconstituted with either mock vector (expressing Venus), or with FSP1-Venus to restore FSP1 expression, and treated with either CPBA or iFSP1 as described above (see FIG. 18B).

[3] = test system: HT1080 FSP1-KO cells reconstituted with either FSP1-WT or FSP1-G2A; test: FIN56-induced ferroptosis in FSP1-KO cells reconstituted with FSP1-WT or FSP1-G2A; type: cell-based, human; settings: iFSP1 10 μM, CPBA 100 μM
Description: as §1
In order to study the effect of FSP1 membrane targeting on iFSP1 or CPBA-dependent ferroptosis sensitization, HT1080 FSP1-KO cells reconstituted with either FSP1-WT or the membrane binding-incompetent myristoylation mutant FSP1-G2A were incubated with serial FIN56-dilutions in the absence or presence of the DMSO solvent control, iFSP1 (10 μM), or CPBA (100 μM) (see FIG. 18A).

Row | Compound | sensitization of cancer cell lines to FIN56-induced ferroptosis (cancer cell lines; CPBA 100 μM, iFSP1 10 μM (3 μM in HepG2), 16 h) | extent of sensitization to ferroptosis in FSP1-WT cells [1] | additional effect in FSP1-deficient cells [1] | effect in cells reconstituted with FSP1-Venus ([2]; CPBA- and FIN56-treated cells) | enhancement of the ferroptosis-inducing effect of FIN56 ([2]; FSP1-deficient cells (mock vector)) | ferroptosis sensitization depending on FSP1 membrane targeting [3] | effect in human cancer cell lines (cancer cell lines; human cancer cell lines) | effect in mouse or rat cancer cell lines (cancer cell lines; mouse or rat cancer cell lines (FIG. 20A)) | effectiveness in LOX-IMVI cells ([2]; as described previously (Doll et al., Nature 2019))
1 | O=C(Nc1ccccc1C(=O)O)c1ccc(Oc2ccc(C(=O)Nc3ccccc3C(=O)O)cc2)cc1 [CPBA, 2-[[4-[4-[(2-carboxyphenyl)carbamoyl]phenoxy]benzoyl]amino]-benzoic acid] | sensitizes cancer cell lines of different species and tumor types to ferroptosis | comparable to the effect of FSP1-deficiency | no additional effect of iFSP1 or CPBA is observed in FSP1-deficient cells | FSP1-expression rescues CPBA- and FIN56-treated cells from ferroptosis | does not enhance the ferroptosis-inducing effect of FIN56 in FSP1-deficient cells | sensitize FSP1-proficient cells to ferroptosis only if FSP1 can be targeted to membranes |  |  | 
2 | Cc1ccc(-c2c(C#N)c(N)n3c(nc4ccccc43)c2C#N)cc1 [iFSP1, reference compound] |  | slightly smaller than the effect of CBPA in all conditions | no additional effect of iFSP1 or CPBA is observed in FSP1-deficient cells |  |  | sensitize FSP1-proficient cells to ferroptosis only if FSP1 can be targeted to membranes | able to inhibit endogenous and overexpressed FSP1 in human cancer cell lines, and thereby sensitize these cells to ferroptotic death | completely ineffective in mouse or rat cancer cell lines | ineffective in LOX-IMVI cells
